From patent US5648376A, “Immunosuppressant diterpene compound” (Pharmagenesis, Inc., priority 1995, dated 1997) come the findings set out here.

In series [1] the test system is human peripheral blood lymphocytes (PBLs). In words: Suppression of PBL proliferation in vitro (anti-CD3 X-35 stimulated, [3H] thymidine incorporation). Format: cell-based. The following applies: X-35 5 ng/ml; 72 hours; subglutinol between 1 and 20 μg/ml. The method, then:
One measure of immunosuppression is suppression of stimulated proliferation of peripheral blood lymphocytes (PBLs) in vitro. In the assay detailed in Example 5, PBLs were activated in vitro by addition of anti-CD3 monoclonal antibody (X-35 antibody). Subglutinol or vehicle (control) was added to each culture, at selected concentrations. After 72 hours incubation, tritiated thymidine was added to the culture medium, and incorporation of tritium into DNA was assayed as a measure of DNA synthesis associated with cell proliferation.
This example examines the ability of subglutinol to suppress the proliferation of human peripheral blood lymphocytes (PBLs) when stimulated with X-35 (AMAC #0178), an anti-CD3 surface antigen antibody. Human PBLs were prepared using an established method (Boyum). Human blood buffy coat samples, approximately 25 ml/donor, were obtained from the Stanford University Medical Center Blood Bank. […] The cell pellets were suspended in 10 ml of X-Vivo tissue culture medium (BioWhittakar, Walkersville, Md) and counted using a hemocytometer. […]
Plates were incubated at 37° C. in a 7% CO2 incubator for 72 hours. […] Samples were counted in a liquid scintillation counter (1205 Betaplate, Pharmacia LKB Biotechnology). […]
On the technique in general: Incorporation of labelled thymidine or its analogues reports DNA synthesis.

Series [2] has as its system proliferation of lymphocytes in a mixed lymphocyte reaction. In words: Murine mixed lymphocyte reaction (MLR). In kind it is cell-based, mouse. To be noted: at 0.1 μg/ml; C57Bl/6 responder, irradiated Balb/C stimulator spleen cells; 4 days. The method, then: A measure of immunosuppression that serves as a model for transplantation rejection is inhibition of cell proliferation in a mixed lymphocyte reaction (MLR) assay (Bradley, in Mishell, 1980). In these experiments, an MLR is induced by co-incubating responder (R) cells from one mouse strain (C57B1/6) with stimulator (S) cells from another mouse strain (Balb/C).
The responder cells proliferate in the presence of the allogenic stimulator cells. The stimulator cells are irradiated so they are unable to proliferate. After 72 hours incubation, tritiated thymidine is added to the mixed cell cultures, and incorporation of the labeled nucleotide into DNA is assayed as an index of cell proliferation.
In the MLR test reported in Example 7, responder cells were co-cultured in microtitre wells with stimulator cells, in the presence of selected concentrations of subglutinol between 0.01 and 0.3 μg/ml. The wells receiving no subglutinol would be expected to be maximally stimulated. The cells were cultured for 4 days, and labeled with [^3 H] thymidine during the last 18 hours of incubation. […]
Several controls were conducted in the MLR assay. […] The spontaneous proliferation of R was also measured. […] Cells were harvested and counted as above. […]

Series [3] in a line: Evaluation of potential toxicity (MTT assay). In kind it is cell-based. The following applies: human, pbls, 21 hours plus 3 hours MTT. The method, then: Potential toxicity of the mixture was assessed by measurement the effect of subglutinol on the ability of cultured cells to reduce MTT (3-[4,5-Dimethylthiazol-2-yl]-2,5-diphenyltetrazolium bromide), an index of cellular respiration that is more sensitive in the detection of cytotoxicity than methods involving measurement of DNA replication (Green, 1984).
Potential cytotoxicities of test samples were assessed by measuring the effect of subglutinol on the reduction of MTT (3-[4,5-Dimethylthiazole-2-yl]-2,5-diphenyl-tetrazolium bromide) by cultured cells. MTT, a yellow-colored compound, is reduced by mitochondrial enzymes to form a purple crystalline reduction product, formazane, providing an index of cellular respiration as well as a sensitive assay for cytotoxicity (Green, 1984).
Cytotoxicity was assessed in cultured human PBLs. A stock solution of MTT (Sigma, St. Louis, Mo.), 5 mg/ml phosphate buffered saline, pH 7.4, was prepared and stored in the dark at 4° C. PBLs were cultured with various concentrations of test samples in flat-bottom 96 well tissue culture plate (Costar #3595) using the same conditions as in Example 5 above, except that X-35 was replaced with the appropriate medium.
Untreated cells in medium alone were used as controls in each experiment. Following 21 hours of incubation of cells, 25 μl of MTT solution was added to each well. After an additional three hour incubation, the experiment was terminated by adding a solution of 10% sodium dodecyl sulfate in 0.01 N HCl.
Following overnight incubation at 37° C. (to solubilize the formazane crystals), optical density was determined at 570-650 nm in a microplate reader (Thermo max, Molecular Devices, Calif.). Data are expressed as % cytotoxicity. Subglutinol concentrations of 0.03, 0.1, and 0.3 μg/ml gave % cytotoxicity values of 0, 20, and 28%, respectively.
(In general: Formazan colour is commonly taken as a measure of viable cells.)

In series [4] the test system is IL-1 action on mouse thymocytes. In words: Inhibition of IL-1 action on mouse thymocytes (proliferation, [3H] thymidine incorporation). Format: cell-based. The following applies: at about 0.2 μg/ml; rIL-1β 0.08 ng/ml plus PHA 10 μg/ml; 72 hours; range 0.012 to 0.76 μg/ml. The method, then: The ability of subglutinol to suppress the cell-proliferative effect of IL-1 in mouse thymocytes as an index of IL-1 action (O'Gara, 1990) was also examined. In this study, mouse thymocytes in culture were stimulated with IL-1 in the presence of phytohemagglutinin and increasing concentrations of subglutinol. The cells were cultured for 72 hours, and during the last four hours, incubated with tritiated thymidine. […] Details are given in Example 6.
Mouse thymocytes were prepared, and the action of IL-1, which stimulates thymocyte proliferation, was measured using standard techniques (O'Gara, 1990). Three to six week old C3H/HeN male mice (Simonson Laboratory, Gilroy, Calif.) were sacrificed by CO2 inhalation. Thymi were removed, separated from adherent non-thymic tissue, homogenized in Hank's balanced salt solution (HBSS, Gibco) using a glass homogenizer, and centrifuged at 200×g for 10 minutes at 15° C. Following an additional wash in HBSS, the thymocytes were resuspended in RPMI 1640 medium (Gibco) containing 50 μM 2-mercaptoethanol, 2 mM glutamine, 1 mM sodium pyruvate, non-essential amino acids 100 U/ml penicillin, 100 μg/ml streptomycin and 10% heat-inactivated fetal bovine serum. […]
Subglutinol was added, 25 μl per well, to obtain final concentrations of subglutinol between 0.001 and 0.78 μg/ml. […] Cells were harvested and counted as above. […]

For the compound `C=C1CCC2C3(C)CC(C=C(C)C)OC3CCC2(C)C1Cc1c(O)c(C)c(C)oc1=O` (stereo not drawn) [subglutinol], the “percent suppression of proliferation of anti-CD3 stimulated PBLs (FIG. 10)” value in series [1] is on record as “dose-dependent suppression”. The “percent inhibition of stimulation in MLR (FIG. 12)” value in series [2] was “Nearly complete inhibition”. The figures for the cytotoxicity at 24 h in series [3] (0.03 μg/ml), in series [3] (0.1 μg/ml) and in series [3] (0.3 μg/ml) were 0%, 20% and 28%, respectively. Moreover, in series [4], the “inhibition of IL-1 action on thymocytes (FIG. 11)” value is recorded as “Nearly complete inhibition”.
